Where two headings read alike, the source gives them in different places. Marks after values point to notes of the source that are not given here.
What was measured:
TEM-1 Bla = TEM-1 Bla (Escherichia coli, UniProt P62593); assay: Fluorescence activation of probes by TEM-1 Bla; format: biochemical, E. coli; details: for change in fluorescence with TEM-1 Bla (in words): TEM-1 Bla 50 nM, 30 minutes
Experimental: (§1) The fluorescent spectra of the probes CDC-1, CDC-3, CDC-OMe and CDC-OEt were recorded before and after BlaC treatment to examine their responses to BlaC.
(§2) The response of CDC-OMe to varying concentrations of BlaC and TEM-1 Bla (at a range of 1 pM to 100 nM) was examined to investigate its specificity (FIG. 1C). 1 nM of BlaC (100 μL) induced a 130% increase in the fluorescence intensity within one hour (F/F0=2.3), while a 100-fold higher TEM-1 Bla concentration (100 nM) could only produce 30% fluorescence enhancement (F/F0=1.3).
(§3) Even at a more than 1000-fold higher concentration, the fluorescence signal of CDG-OMe generated by TEM-1 Bla (400 nM) was just 30% of that by BlaC (400 pM) in 300 mins, confirming its high selectivity for BlaC (FIG. 5C). Less than 1 fmol of BlaC was readily detectable with CDG-OMe after 8 hours incubation (FIG. 5D).

BlaC [1] = target: T1, BlaC (Mycobacterium tuberculosis, UniProt P9WKD3); details: for Km: read-out: BlaC Km
BlaC-expressing E. coli = format: cell-based
BlaC [2] = target: T1, BlaC; assay: Fluorescence activation of probes by BlaC; format: biochemical
Experimental: as §1, §2, §3

[3] = tested on: TEM-1 Bla-expressing E. coli; format: cell-based
[4] = tested on: M. tuberculosis var. bovis strain BCG; format: cell-based, Mycobacterium tuberculosis var. bovis strain BCG
[5] = tested on: COc1ccc(-c2c3ccc(=O)cc-3oc3cc(OCc4ccc(OCC5=C(C(=O)O)N6C(=O)[C@@H](NC(=O)Cc7ccccc7)[C@H]6SC5)cc4)ccc23)c(C)c1; assay: purified protein, by the assay type; details: 22.0 °C
[6] = tested on: O=C(Cc1ccccc1)N[C@@H]1C(=O)N2C(C(=O)O)=C(COc3ccc4ccc(=O)oc4c3)C[S@+]([O-])[C@H]12; assay: purified protein, by the assay type; details: pH 7.4; 22.0 °C
[7] = tested on: COc1ccc(-c2c3ccc(=O)cc-3oc3cc(OCc4ccc(OCC5=C(C(=O)O)N6C(=O)[C@](NC(=O)Cc7ccccc7)(OC)[C@H]6SC5)cc4)ccc23)c(C)c1; assay: purified protein, by the assay type; details: 22.0 °C
[8] = 1 nM of BlaC (100 μL), within one hour

TEM-1 Bla, sequence (P62593 24-286 limits assumed): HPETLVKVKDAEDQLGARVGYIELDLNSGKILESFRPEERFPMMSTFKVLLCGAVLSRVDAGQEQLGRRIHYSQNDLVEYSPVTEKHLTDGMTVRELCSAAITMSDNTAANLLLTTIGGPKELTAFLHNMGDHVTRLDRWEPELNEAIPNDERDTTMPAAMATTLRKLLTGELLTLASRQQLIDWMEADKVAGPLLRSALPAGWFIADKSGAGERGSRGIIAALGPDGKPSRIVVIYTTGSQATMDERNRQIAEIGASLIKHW
T1 sequence (P9WKD3 35-307 limits assumed): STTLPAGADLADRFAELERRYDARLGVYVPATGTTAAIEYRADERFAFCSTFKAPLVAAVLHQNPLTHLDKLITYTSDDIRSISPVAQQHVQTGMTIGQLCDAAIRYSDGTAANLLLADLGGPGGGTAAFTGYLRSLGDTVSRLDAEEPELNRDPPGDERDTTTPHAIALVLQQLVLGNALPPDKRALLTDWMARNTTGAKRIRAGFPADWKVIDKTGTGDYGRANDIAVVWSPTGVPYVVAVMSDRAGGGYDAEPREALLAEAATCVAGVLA

O=C(Cc1ccccc1)N[C@@H]1C(=O)N2C(C(=O)O)=C(COc3ccc4ccc(=O)oc4c3)CS[C@H]12 [CDC-1, (6R,7R)-8-Oxo-3-((2-oxo-2H-chromen-7-yloxy)methyl)-7-(2-phenylacetamido)-5-thia-1-azabicyclo[4.2.0]oct-2-ene-2-carboxylic acid]
change in fluorescence with TEM-1 Bla (in words) (TEM-1 Bla): rapid fluorescence | signal with TEM-1 Bla compared with BlaC (in words) (TEM-1 Bla; serially diluted enzymes, 1 hour): stronger signal than with BlaC | BlaC kcat (BlaC [1]): 13 s⁻¹ | Km (BlaC [1]): 63 µM | fluorescence in E. coli expressing no β-lactamase, TEM-1 Bla or BlaC (in words) (BlaC-expressing E. coli): present in E. coli expressing either TEM-1 Bla or BlaC

CCN1CCN(C(=O)N[C@@H](C(=O)N[C@@H]2C(=O)N3C(C(=O)O)=C(COc4ccc5ccc(=O)oc5c4)CS[C@H]23)c2ccccc2)C(=O)C1=O [CDC-3, (6R,7R)-7-((R)-2-(4-Ethyl-2,3-dioxopiperazine-1-carboxamido)-2-phenylacetamido)-8-oxo-3-((2-oxo-2H-chromen-7-yloxy)methyl)-5-thia-1-azabicyclo[4.2.0]oct-2-ene-2-carboxylic acid]
change in fluorescence with TEM-1 Bla (in words) (TEM-1 Bla): rapid fluorescence | BlaC kcat (BlaC [1]): 6 s⁻¹ | Km (BlaC [1]): 69 µM

CC(=O)N[C@@H]1C(=O)N2C(C(=O)O)=C(COc3ccc4ccc(=O)oc4c3)CS[C@H]12 [CDC-4, (6R,7R)-7-Acetamido-8-oxo-3-(((2-oxo-2H-chromen-7-yl)oxy)methyl)-5-thia-1-azabicyclo[4.2.0]oct-2-ene-2-carboxylic acid]
BlaC kcat (BlaC [1]): 10 s⁻¹ | Km (BlaC [1]): 148 µM

CO[C@@]1(NC(C)=O)C(=O)N2C(C(=O)O)=C(COc3ccc4ccc(=O)oc4c3)CS[C@@H]21 [CDC-5, (6R,7S)-7-Acetamido-7-methoxy-8-oxo-3-(((2-oxo-2H-chromen-7-yl)oxy)methyl)-5-thia-1-azabicyclo[4.2.0]oct-2-ene-2-carboxylic acid]
BlaC kcat (BlaC [1]): 0.52 s⁻¹ | Km (BlaC [1]): 139 µM

CCO[C@@]1(NC(=O)Cc2ccccc2)C(=O)N2C(C(=O)O)=C(COc3ccc4ccc(=O)oc4c3)CS[C@@H]21 [CDC-OEt, (6R,7S)-7-Ethoxy-8-oxo-3-((2-oxo-2H-chromen-7-yloxy)methyl)-7-(2-phenylacetamido)-5-thia-1-azabicyclo[4.2.0]oct-2-ene-2-carboxylic acid]
BlaC kcat (BlaC [1]): 0.026 s⁻¹ | further reduction in turnover number (BlaC) relative to CDC-OMe (BlaC [1]): 40 fold | Km (BlaC [1]): 131 µM | fluorescence enhancement by BlaC (in words) (BlaC [2]; within 30 minutes, BlaC 50 nM): only slight fluorescence enhancement

CO[C@@]1(NC(=O)Cc2ccccc2)C(=O)N2C(C(=O)O)=C(COc3ccc4ccc(=O)oc4c3)CS[C@@H]21 [CDC-OMe, (6R,7S)-7-Methoxy-8-oxo-3-((2-oxo-2H-chromen-7-yloxy)methyl)-7-(2-phenylacetamido)-5-thia-1-azabicyclo[4.2.0]oct-2-ene-2-carboxylic acid]
change in fluorescence with TEM-1 Bla (in words) (TEM-1 Bla): no change in the fluorescence intensity | F/F0 (turn-on ratio) (TEM-1 Bla; TEM-1 Bla 100 nM, one hour): 1.3 | fluorescence enhancement (TEM-1 Bla; TEM-1 Bla 100 nM, one hour): 30% | BlaC kcat (BlaC [1]): 1 s⁻¹ | catalytic efficiency (kcat/Km) for BlaC over TEM-1 Bla (BlaC [1]): over 1,000 fold | Km (BlaC [1]): 47 µM | fluorescence in E. coli expressing no β-lactamase, TEM-1 Bla or BlaC (in words) (BlaC-expressing E. coli): strong fluorescence was observed only with E. coli expressing BlaC | F/F0 (turn-on ratio) (BlaC [2]; [8]): 2.3 | increase in the fluorescence intensity (BlaC [2]; [8]): 130% | enhancement of fluorescence intensity by BlaC (BlaC [2]; in less than 30 minutes, BlaC 50 nM): more than 30 fold

COc1ccc(-c2c3ccc(=O)cc-3oc3cc(OCc4ccc(OCC5=C(C(=O)O)N6C(=O)[C@@H](NC(=O)Cc7ccccc7)[C@H]6SC5)cc4)ccc23)c(C)c1 [CDG-1, (6R,7R)-3-((4-(((9-(4-Methoxy-2-methylphenyl)-3-oxo-3H-xanthen-6-yl)oxy)methyl)phenoxy)methyl)-8-oxo-7-(2-phenylacetamido)-5-thia-1-azabicyclo[4.2.0]oct-2-ene-2-carboxylic acid]
BlaC kcat (BlaC [1]; pH 6.6): (1.0) s^−1 | number of TEM-1 Bla-carrying E. coli detected [3]: approximately 1,000 | number of BlaC-carrying E. coli detected (BlaC-expressing E. coli): ~10,000

COc1ccc(-c2c3ccc(=O)cc-3oc3cc(OCc4ccc(OCC5=C(C(=O)O)N6C(=O)[C@](NC(=O)Cc7ccccc7)(OC)[C@H]6SC5)cc4)ccc23)c(C)c1 [CDG-OMe, (6R,7S)-7-Methoxy-3-((4-(((9-(4-methoxy-2-methylphenyl)-3-oxo-3H-xanthen-6-yl)oxy)methyl)phenoxy)methyl)-8-oxo-7-(2-phenylacetamido)-5-thia-1-azabicyclo[4.2.0]oct-2-ene-2-carboxylic acid]
fluorescence signal generated by TEM-1 Bla relative to that by BlaC (TEM-1 Bla; TEM-1 Bla 400 nM vs BlaC 400 pM, 300 mins): 30% | increase of kcat/Km for BlaC relative to CDC-OMe (BlaC [1]): 11 fold | BlaC kcat (BlaC [1]; pH 6.6): (0.8) s^−1 | signal from TEM-1 Bla-expressing E. coli (in words) [3]: no detectable signal | signal from BlaC-expressing E. coli (in words) (BlaC-expressing E. coli): strong fluorescent signal | number of BCG detected ([4]; 20 min incubation): 2×10^5 CFU | number of BCG detected ([4]; 438 mins (7 hours) incubation): 10^3 CFU | amount of BlaC readily detectable (BlaC [2]; after 8 hours incubation): Less than 1 fmol | increase of fluorescence emission at 520 nm upon treatment with BlaC (BlaC [2]; excitation 490 nm): up to 218 fold

BlaC (Mycobacterium tuberculosis H37Rv)
Km ([5]; pH 6.6): (2.1)^c μM | Km ([5]; pH 7.4): 2.1 µM | kcat ([5]; pH 7.4): 3.7 s⁻¹ | kcat/Km ([5]; pH 7.4): 1.8 × 10^6 s^−1M^−1 | Km [6]: 136 µM | kcat [6]: 0.51 s⁻¹ | kcat/Km [6]: 3.8 × 10^3 s^−1M^−1 | Km ([7]; pH 6.6): (4.7)^c μM | Km ([7]; pH 7.4): 2.9 µM | kcat ([7]; pH 7.4): 0.7 s⁻¹ | kcat/Km ([7]; pH 7.4): 2.4 × 10^5 s^−1M^−1

Source: patent US9677112B2 (priority 2012, dated 2017)
